Assay results published in patent publication US20240391862A1, “(1,4,5-TRISUBSTITUTED-1H-PYRAZOL-3-YL)OXY-2-ALKOXY ALKYL ACIDS AND THEIR DERIVATIVES, THEIR SALTS AND THEIR USE AS HERBICIDAL AGENTS” (Bayer AKtiengesellschaft, priority 2021, published 2024).

Assays:
ZEAMX = test: Post-emergence herbicidal effect and crop plant compatibility, greenhouse pot test; assay type: in vivo, Zea mays; conditions: Zea mays, 504 h, 20 g/ha, one-leaf stage, rated visually after about 3 weeks vs untreated controls, read-out: Post-emergence effect at 20 g/ha against ZEAMX in %
Procedure, shortened: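 Greenhouse pot test: weeds and crops sown in sandy loam, sprayed post-emergence at one-leaf stage (2–3 weeks after sowing) with WP or EC formulations plus 0.5% additive at 600 l/ha water, rates 20–320 g/ha. Visual rating about 3 weeks later versus untreated controls (100% = dead, 0% = as control).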

ABUTH = test: Post-emergence herbicidal effect, greenhouse pot test; assay type: in vivo, Abutilon theophrasti; conditions: Abutilon theophrasti, 504 h, visual rating about 3 weeks after treatment, read-out: Post-emergence effect against ABUTH
Procedure, shortened: (§1)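 Visual % activity scored roughly 3 weeks post-spray against untreated plants, where 100% means death and 0% equals control. Plants were treated at the one-leaf stage, 2 to 3 weeks after sowing in sandy loam, at 20 to 320 g/ha.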

ALOMY = test: as above; assay type: in vivo, Alopecurus myosuroides; conditions: Alopecurus myosuroides, 504 h, visual rating about 3 weeks after treatment, read-out: Post-emergence effect against ALOMY
Procedure, shortened: as §1

AMARE = test: as above; assay type: in vivo, Amaranthus retroflexus; conditions: Amaranthus retroflexus, 504 h, 320 g/ha, visual rating about 3 weeks after treatment, read-out: Post-emergence effect against AMARE
Procedure, shortened: as §1

AVEFA = test: as above; assay type: in vivo, Avena fatua; conditions: Avena fatua, 504 h, visual rating about 3 weeks after treatment, read-out: Post-emergence effect against AVEFA
Procedure, shortened: as §1

DIGSA = test: as above; assay type: in vivo, Digitaria sanguinalis; conditions: Digitaria sanguinalis, 504 h, visual rating about 3 weeks after treatment, read-out: Post-emergence effect against DIGSA
Procedure, shortened: as §1

ECHCG = test: as above; assay type: in vivo, Echinochloa crus-galli; conditions: Echinochloa crus-galli, 504 h; for pest or weed control at 80 g/ha / pest or weed control at 320 g/ha: read-out: Post-emergence effect against ECHCG in %
Procedure, shortened: as §1

LOLRI = test: as above; assay type: in vivo, Lolium rigidum; conditions: Lolium rigidum, 504 h, read-out: Post-emergence effect against LOLRI in %
Procedure, shortened: as §1

MATIN = test: as above; assay type: in vivo, Tripleurospermum inodorum; conditions: Tripleurospermum inodorum, 504 h, read-out: Post-emergence effect against MATIN in %
Procedure, shortened: as §1

PHBPU = test: as above; assay type: in vivo, Ipomoea purpurea; conditions: Ipomoea purpurea, 504 h, read-out: Post-emergence effect against PHBPU in %
Procedure, shortened: as §1

POLCO = test: as above; assay type: in vivo, Fallopia convolvulus; conditions: Fallopia convolvulus, 504 h, read-out: Post-emergence effect against POLCO in %
Procedure, shortened: as §1

SETVI = test: as above; assay type: in vivo, Setaria viridis; conditions: Setaria viridis, 504 h, read-out: Post-emergence effect against SETVI in %
Procedure, shortened: as §1

VERPE = test: as above; assay type: in vivo, Veronica persica; conditions: Veronica persica, 504 h, read-out: Post-emergence effect against VERPE in %
Procedure, shortened: as §1

VIOTR = test: as above; assay type: in vivo, Viola tricolor; conditions: Viola tricolor, 504 h, read-out: Post-emergence effect against VIOTR in %
Procedure, shortened: as §1

KCHSC = test: as above; assay type: in vivo; conditions: for pest or weed control at 80 g/ha / pest or weed control at 320 g/ha: 504 h, read-out: Post-emergence effect against KCHSC in %
Procedure, shortened: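 Greenhouse plants in sandy loam, sprayed post-emergence at the one-leaf stage (2–3 weeks after sowing) with WP or EC formulations in water plus 0.5% additive at 600 l/ha. Rates 20 to 320 g/ha. Activity rated visually after about 3 weeks against untreated controls (0% like control, 100% dead).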

Row | SMILES | plant injury at 20 g/ha (ZEAMX) [%] | pest or weed control at 80 g/ha (ABUTH) [%] | pest or weed control at 320 g/ha (ABUTH) [%] | pest or weed control at 320 g/ha (ALOMY) [%] | pest or weed control at 320 g/ha (AMARE) [%] | pest or weed control at 80 g/ha (AVEFA) [%] | pest or weed control at 320 g/ha (AVEFA) [%] | pest or weed control at 320 g/ha (DIGSA) [%] | pest or weed control at 80 g/ha (ECHCG) [%] | pest or weed control at 320 g/ha (ECHCG) [%] | pest or weed control at 320 g/ha (LOLRI) [%] | pest or weed control at 80 g/ha (MATIN) [%] | pest or weed control at 320 g/ha (MATIN) [%] | pest or weed control at 80 g/ha (PHBPU) [%] | pest or weed control at 320 g/ha (PHBPU) [%] | pest or weed control at 80 g/ha (POLCO) [%] | pest or weed control at 320 g/ha (POLCO) [%] | pest or weed control at 80 g/ha (SETVI) [%] | pest or weed control at 320 g/ha (SETVI) [%] | pest or weed control at 80 g/ha (VERPE) [%] | further results
1 | CCOC(=O)C(OC)Oc1nn(-c2ncccc2F)c(-c2ccc(F)nc2)c1Cl (stereo not drawn) [Example I-48] | 0 | 80 | 90 | 90 | 80 | 90 | 90 | 90 | 90 | 90 | 90 | 80 | 90 | 90 | 90 | 80 | 80 | 90 | 90 | 80 | pest or weed control at 80 g/ha (DIGSA; 80 g/ha): 80%; pest or weed control at 80 g/ha (LOLRI; 80 g/ha): 90%; pest or weed control at 20 g/ha (POLCO; 20 g/ha): 80%; pest or weed control at 320 g/ha (VERPE): 90%; pest or weed control at 20 g/ha (VIOTR; 20 g/ha): 80%; pest or weed control at 80 g/ha (VIOTR): 90%; pest or weed control at 320 g/ha (VIOTR): 90%; pest or weed control at 80 g/ha (KCHSC): 80%; pest or weed control at 320 g/ha (KCHSC): 90%
2 | COC(Oc1nn(-c2ncccc2F)c(-c2cncc(F)c2)c1C1CC1)C(=O)O (stereo not drawn) [Example I-68] | 0 | 80 | 90 | 90 | 80 | 90 | 90 | 90 | 90 | 90 | 90 | 80 | 90 | 90 | 90 | 80 | 80 | 90 | 90 | 90 | pest or weed control at 80 g/ha (ALOMY; 80 g/ha): 90%; pest or weed control at 20 g/ha (ECHCG; 20 g/ha, visual rating about 3 weeks after treatment, read-out: Post-emergence effect against ECHCG): 80%; pest or weed control at 320 g/ha (VERPE): 90%; pest or weed control at 80 g/ha (VIOTR): 90%; pest or weed control at 320 g/ha (VIOTR): 90%; Post-emergence effect against KCHSC in % (KCHSC; 20 g/ha): 90%; pest or weed control at 80 g/ha (KCHSC): 90%; pest or weed control at 320 g/ha (KCHSC): 90%
